Experiments:
[1] = test system: surinam grass; assay: Test B pre/postemergence surinam grass; format: in vivo, Brachiaria decumbens
Method in brief: (§1)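 Test chemicals in a non-phytotoxic solvent mixture with surfactant were sprayed preemergence onto planted seeds and postemergence onto plants 2 to 18 cm tall (1- to 4-leaf stage). After twelve to sixteen days in a greenhouse, injury was visually rated against untreated controls from 0 (no effect) to 10 (complete control).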

[2] = test system: wheat; assay: Test B pre/postemergence wheat; format: in vivo, Triticum aestivum
Method in brief: as §1

[3] = test system: cocklebur; assay: Test B pre/postemergence cocklebur; format: in vivo, Xanthium strumarium
Method in brief: as §1

[4] = test system: crabgrass; assay: Test B pre/postemergence crabgrass; format: in vivo, Digitaria sanguinalis
Method in brief: as §1

[5] = test system: bamyardgrass; assay: Test B flood test barnyardgrass; format: in vivo, Echinochloa crus-galli; details: flood test species
Method in brief: (§2)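 Plants were grown to the 2-leaf stage before treatment with test chemical, then held in a greenhouse for twelve to sixteen days. Injury was visually rated against untreated controls on a 0–10 scale, where 0 is no effect and 10 is complete control.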

[6] = test system: smallflower flatsedge; assay: Test B flood test smallflower flatsedge; format: in vivo, Cyperus difformis; details: flood test species
Method in brief: as §2

[7] = test system: morningglory; assay: Test B pre/postemergence morningglory; format: in vivo, Ipomoea hederacea
Method in brief: as §1

[8] = test system: pigweed; assay: Test B pre/postemergence pigweed; format: in vivo, Amaranthus retroflexus
Method in brief: as §1

[9] = test system: giant foxtail; assay: Test B pre/postemergence giant foxtail; format: in vivo, Setaria faberii
Method in brief: as §1

[10] = test system: wild oat; assay: Test B pre/postemergence wild oat; format: in vivo, Avena fatua
Method in brief: as §1

[11] = test system: blackgrass; assay: Test B pre/postemergence blackgrass; format: in vivo, Alopecurus myosuroides
Method in brief: as §1

[12] = test system: duck salad; assay: Test B flood test duck salad; format: in vivo, Heteranthera limosa; details: flood test species
Method in brief: as §2

[13] = test system: bedstraw; assay: Test B pre/postemergence bedstraw; format: in vivo, Galium aparine; details: Postemergence
Method in brief: as §1

[14] = test system: rice; assay: Test B flood test rice; format: in vivo, Oryza sativa; details: flood test species
Method in brief: as §2

[15] = test system: purple nutsedge; assay: Test B pre/postemergence purple nutsedge; format: in vivo, Cyperus rotundus
Method in brief: as §1

[16] = test system: velvetleaf; assay: Test B pre/postemergence velvetleaf; format: in vivo, Abutilon theophrasti
Method in brief: as §1

[17] = test system: rape; assay: Test B pre/postemergence rape; format: in vivo, Brassica napus
Method in brief: as §1

[18] = test system: corn; assay: Test B pre/postemergence corn; format: in vivo, Zea mays
Method in brief: as §1

[19] = test system: soybean; assay: Test B pre/postemergence soybean; format: in vivo, Glycine max
Method in brief: as §1

[20] = test system: sugar beet; assay: Test B pre/postemergence sugar beet; format: in vivo, Beta vulgaris
Method in brief: as §1

[21] = Postemergence, Rate 125 g/ha, scale 0 to 10, 0 is no effect, 10 is complete control
[22] = Postemergence, Rate 500 g/ha, scale 0 to 10, 0 is no effect, 10 is complete control
[23] = Preemergence, Rate 62 g/ha, scale of 0 to 10 where 0 is no effect and 10 is complete control
[24] = Preemergence, Rate 125 g/ha, scale 0 to 10, 0 is no effect, 10 is complete control
[25] = Preemergence, Rate 250 g/ha, scale 0 to 10, 0 is no effect, 10 is complete control
[26] = Preemergence, Rate 500 g/ha, scale 0 to 10, 0 is no effect, 10 is complete control
[27] = Rate 62 g/ha, Postemergence, scale 0 to 10 (0 no effect, 10 complete control)
[28] = Postemergence, Rate 250 g/ha, scale 0 to 10
[29] = Rate 62 g/ha, Pre-emergence, visual evaluation after twelve to sixteen days
[30] = Rate 125 g/ha, under heading Pre-emergence, visual evaluation after twelve to sixteen days
[31] = Rate 500 g/ha, Pre-emergence, scale 0 to 10 (0 no effect, 10 complete control)

CC(C)C(=O)Cn1c(=O)on(C(=O)N(c2ccccc2)C(C)C)c1=O [Compound 485]
B. signalgrass plant response rating [1, 21]: 0
B. signalgrass plant response rating ([1]; Postemergence, Rate 250 g/ha, scale 0 to 10, 0 no effect, 10 complete control): 4
Plant response rating, B. signalgrass [1, 22]: 5
Plant response rating, B. signalgrass [1, 23]: 3
B. signalgrass plant response rating [1, 24]: 5
B. signalgrass plant response rating [1, 25]: 8
B. signalgrass plant response rating [1, 26]: 8
B. signalgrass plant response rating [1, 27]: 0
Wheat plant response rating [2, 21]: 0
Plant response rating, Wheat [2, 22]: 5
Plant response rating, Wheat [2, 23]: 0
Wheat plant response rating [2, 24]: 2
Wheat plant response rating [2, 25]: 3
Wheat plant response rating [2, 26]: 5
Wheat plant response rating [2, 27]: 0
Cocklebur plant response rating [3, 21]: 0
Cocklebur plant response rating [3, 28]: 0
Plant response rating, Cocklebur [3, 22]: 0
Plant response rating, Cocklebur [3, 23]: 0
Cocklebur plant response rating [3, 24]: 0
Cocklebur plant response rating [3, 25]: 0
Cocklebur plant response rating [3, 26]: 0
Cocklebur plant response rating [3, 27]: 0
Crabgrass plant response rating [4, 21]: 6
Crabgrass plant response rating [4, 28]: 7
Plant response rating, Crabgrass [4, 22]: 8
Plant response rating, Crabgrass [4, 23]: 6
Crabgrass plant response rating [4, 24]: 7
Crabgrass plant response rating [4, 25]: 10
Crabgrass plant response rating [4, 26]: 10
Crabgrass plant response rating [4, 27]: 3
Plant response rating, Barnyardgrass (0 to 10 scale, 0 is no effect, 10 is complete control) [5, 29]: 0
Barnyardgrass plant response rating (0 to 10 scale, 0 is no effect, 10 is complete control) [5, 30]: 0
Barnyardgrass plant response rating [5, 31]: 0
Plant response rating, S. Flatsedge (0 to 10 scale, 0 is no effect, 10 is complete control) [6, 29]: 0
S. Flatsedge plant response rating (0 to 10 scale, 0 is no effect, 10 is complete control) [6, 30]: 0
S. Flatsedge plant response rating [6, 31]: 0
Morningglory plant response rating [7, 21]: 10
Plant response rating, Morningglory [7, 22]: 10
Plant response rating, Morningglory [7, 23]: 0
Morningglory plant response rating [7, 24]: 0
Morningglory plant response rating [7, 25]: 0
Morningglory plant response rating [7, 26]: 4
Morningglory plant response rating [7, 27]: 8
Redroot pigweed plant response rating [8, 21]: 0
Plant response rating, Redroot pigweed [8, 22]: 2
Plant response rating, Redroot pigweed [8, 23]: 1
Redroot pigweed plant response rating [8, 24]: 6
Redroot pigweed plant response rating [8, 26]: 9
Redroot pigweed plant response rating [8, 27]: 0
Giant foxtail plant response rating [9, 21]: 7
Plant response rating, Giant foxtail [9, 22]: 8
Plant response rating, Giant foxtail [9, 23]: 7
Giant foxtail plant response rating [9, 24]: 8
Giant foxtail plant response rating [9, 25]: 10
Giant foxtail plant response rating [9, 26]: 10
Giant foxtail plant response rating [9, 27]: 5
Wild oats plant response rating [10, 21]: 0
Plant response rating, Wild oats [10, 22]: 4
Plant response rating, Wild oats [10, 23]: 2
Wild oats plant response rating [10, 24]: 5
Wild oats plant response rating [10, 25]: 6
Wild oats plant response rating [10, 26]: 8
Wild oats plant response rating [10, 27]: 0
Blackgrass plant response rating [11, 21]: 7
Blackgrass plant response rating [11, 28]: 7
Plant response rating, Blackgrass [11, 22]: 8
Plant response rating, Blackgrass [11, 23]: 4
Blackgrass plant response rating [11, 24]: 8
Blackgrass plant response rating [11, 25]: 8
Blackgrass plant response rating [11, 26]: 9
Blackgrass plant response rating [11, 27]: 3
Plant response rating, Ducksalad (0 to 10 scale, 0 is no effect, 10 is complete control) [12, 29]: 0
Ducksalad plant response rating (0 to 10 scale, 0 is no effect, 10 is complete control) [12, 30]: 0
Ducksalad plant response rating [12, 31]: 0
Bedstraw plant response rating ([13]; Rate 125 g/ha, scale 0 to 10, 0 is no effect, 10 is complete control): 0
Bedstraw plant response rating ([13]; Rate 250 g/ha, scale 0 to 10): 2
Plant response rating, Bedstraw ([13]; Rate 500 g/ha, scale 0 to 10, 0 is no effect, 10 is complete control): 6
Bedstraw plant response rating ([13]; Rate 62 g/ha, scale 0 to 10 (0 no effect, 10 complete control)): 0
Plant response rating, Rice (0 to 10 scale, 0 is no effect, 10 is complete control) [14, 29]: 0
Rice plant response rating (0 to 10 scale, 0 is no effect, 10 is complete control) [14, 30]: 0
Rice plant response rating [14, 31]: 0
Nutsedge plant response rating [15, 21]: 0
Plant response rating, Nutsedge [15, 22]: 0
Plant response rating, Nutsedge [15, 23]: 0
Nutsedge plant response rating [15, 24]: 0
Nutsedge plant response rating [15, 25]: 0
Nutsedge plant response rating [15, 26]: 0
Nutsedge plant response rating [15, 27]: 0
Velvetleaf plant response rating [16, 21]: 0
Plant response rating, Velvetleaf [16, 22]: 4
Plant response rating, Velvetleaf [16, 23]: 0
Velvetleaf plant response rating [16, 24]: 0
Velvetleaf plant response rating [16, 25]: 0
Velvetleaf plant response rating [16, 26]: 3
Velvetleaf plant response rating [16, 27]: 0
Rape plant response rating [17, 21]: 0
Plant response rating, Rape [17, 22]: 0
Plant response rating, Rape [17, 23]: 0
Rape plant response rating [17, 24]: 0
Rape plant response rating [17, 25]: 0
Rape plant response rating [17, 26]: 2
Rape plant response rating [17, 27]: 0
Corn plant response rating [18, 21]: 0
Corn plant response rating [18, 28]: 0
Plant response rating, Corn [18, 22]: 0
Plant response rating, Corn [18, 23]: 0
Corn plant response rating [18, 24]: 0
Corn plant response rating [18, 25]: 0
Corn plant response rating [18, 26]: 7
Corn plant response rating [18, 27]: 0
Soybean plant response rating [19, 21]: 4
Plant response rating, Soybean [19, 22]: 5
Plant response rating, Soybean [19, 23]: 0
Soybean plant response rating [19, 24]: 0
Soybean plant response rating [19, 25]: 0
Soybean plant response rating [19, 26]: 0
Soybean plant response rating [19, 27]: 2
Sugarbeets plant response rating [20, 21]: 0
Plant response rating, Sugarbeets [20, 22]: 0
Plant response rating, Sugarbeets [20, 23]: 0
Sugarbeets plant response rating [20, 24]: 0
Sugarbeets plant response rating [20, 25]: 0
Sugarbeets plant response rating [20, 26]: 2
Sugarbeets plant response rating [20, 27]: 0

Source: US6737383B1, “Herbicidal oxadiazolidines” (priority 1999, dated 2004)
